{
  "source": "patent US11865103B2",
  "about": "“Methods of treating disorders associated with glycosylation defective proteins” (CASE WESTERN RESERVE UNIVERSITY, priority 2016, dated 2024)",
  "tested_on": "hCLRN1^N48K-YFP",
  "assay": "Hair bundle localization of hCLRN1^N48K-YFP (YFP intensity) in neuromast hair cells of live larvae treated with SERCA inhibitors",
  "type": "in vivo, zebrafish",
  "parameters": "key to YFP intensity in the bundle compared to untreated control / YFP intensity, post-exposure hair cell body hCLRN1N48K aggregates recovery: “—” = The YFP intensity in the bundle is similar to untreated control.; “+” = The YFP intensity in the bundle is higher compared to untreated control",
  "conditions": "for Hair bundles with strong expression of hCLRN1^N48K-YFP protein / Increase in trafficking of hCLRN1^N48K to the hair bundle: 1 μM TG or 0.4 μM ART; for Hair bundles with strong expression of hCLRN1^N48K-YFP protein: untreated <5%, FIG. 4I; for Cumulative average of YFP intensity in the ROI in hair bundles (Mean±SEM) / Increase in trafficking of hCLRN1^N48K to the hair bundle: hCLRN1^N48K-YFP, clrn1^+/+ larvae; for Cumulative average of YFP intensity in the ROI in hair bundles (Mean±SEM): 1 uM TG or 0.4 uM ART + 0.01% DMSO in E3 medium, untreated 5.927±0.32; for Increase in trafficking of hCLRN1^N48K to the hair bundle: versus untreated",
  "description": "hCLRN1-YFP predominantly localize to the hair bundle and a weak expression in the hair cell membrane in the transgenic hCLRN1-YFP; clrn1^+/+ zebrafish line, and the human pathogenic variant hCLRN1^N48K-YFP mislocalized in the endoplasmic reticulum (ER) with a small amount manages to get trafficked to the hair bundle of the transgenic hCLRN1^N48K-YFP; clrn1^+/+ zebrafish larvae. A relative quantification of YFP fluorescence intensity was carried-out to compare the quantity of hCLRN1^N48K-YFP that manages to localize in the hair bundle to the hCLRN1-YFP in the hair bundle. To quantify the YFP fluorescence intensity, unadjusted 1 micron middle section images of four hair bundles per neuromast were analyzed in Image J. Fluorescence intensity is reported as the background subtracted Integrated Density value. While Confocal microscopy imaging of neuromast hair bundles from the above mentioned groups, YFP fluorescence channel was unadjusted between siblings from the tested groups, and images chosen for figures were near the mean of the group data. Z-stack image of neuromast hair cells were captures using SP2 confocal microscope and the YFP fluorescence measurements in the hair bundles from 1) control uninjected and 2) unconventional secretory pathway cargo injected groups were obtained using ImageJ. A triangle shaped region of interest covering the area of hair bundle in 1 micron thickness middle section of z-stack image of neuromast hair cells was used to obtain YFP fluorescence pixel intensity measurements (Ihair bundle) and an area without hair cells (Ibackground) in the same image. Fluorescence intensity of YFP (Iload) for each hair bundle in a given neuromast was normalized (Iload=Ihair bundle−Ibackground). We analyzed 4 hair bundle per neuromast per larva, and the YFP fluorescence intensity per neuromast was represented as average of 4 hair bundle YFP intensity (IAvg. load=[…] in a neuromast/larva). And the mean of the total IAvg. load per group was considered for statistical comparison between groups. Student's t-test was used to confirm the observed changes in the YFP intensity in the hair bundles of hGRASP55 mRNA injected compared to hSNX27 mRNA injected and uninjected is significant.\nThapsigargin (TG, 1 mg, Sigma-Aldrich, #T9033) stock in 100% DMSO was diluted in E3 medium to make the required final concentration of the drug. Five different concentrations that were earlier reported to induce ER stress and are non-toxic or lower lethal dose (LD50) in the zebrafish (0.1, 0.5, 1.0, 2.5, 5 μM concentrations) were used in this study. A total of 25 larvae per dosage and treatment duration from the genotypes hCLRN1^N48K-YFP; clrn1^+/+ and hCLRN1-YFP; clrn1^+/+, no older than 72 hours post fertilization (hpf) at the start of the experiment, were placed in a well of 12-well uncoated culture plate (BD Falcon, Canaan, CT). For ER stress induction, larvae were incubated in different dosage of TG from 1 hr to overnight at 28.5° C., followed by three times wash with E3 medium at 28.5° C. (Table 2) and hair cells from the hCLRN1^N48K-YFP; clrn1^+/+ and hCLRN1-YFP; clrn1^+/+ lines were examined for the respective protein distribution pattern in the hair cell bundle and the cell body. Live confocal images of ‘O’ and ‘ML1’ neuromasts per larvae were capture using Leica SP2 confocal microscope with 40× oil immersion objective. Unadjusted 1 micron middle section images of four hair bundles per ML1 neuromast of larvae from TG treated and untreated groups were analyzed using Image J software version v. 1.48 (FIG. 4). The hair bundle trafficked amount of hCLRN1^N48K protein corresponds to the change in YFP intensity in the hair bundle in the TG treated larvae. Quantification of YFP fluorescence intensity was carried out as described in the previous experiment for unconventional trafficking of hCLRN1^N48K-YFP by hGRASP55 cargos. […]",
  "data": [
    {"smiles": "C[C@@H]1CC[C@H]2[C@@H](C)C(=O)O[C@@H]3O[C@@]4(C)CC[C@@H]1[C@]32OO4", "note": "[ART, Artemisinin]", "values": [
      {"measurement": "Hair bundles with strong expression of hCLRN1^N48K-YFP protein", "value": 76, "unit": "%"},
      {"measurement": "YFP intensity in the bundle compared to untreated control", "setting": "ART 0.1 μM, exposure 1 h", "value": "—"},
      {"measurement": "YFP intensity in the bundle compared to untreated control", "setting": "ART 0.1 μM, exposure 2 h", "value": "—"},
      {"measurement": "YFP intensity in the bundle compared to untreated control", "setting": "ART 0.1 μM, exposure 4 h", "value": "—"},
      {"measurement": "YFP intensity in the bundle compared to untreated control", "setting": "ART 0.1 μM, exposure 6 h", "value": "—"},
      {"measurement": "YFP intensity in the bundle compared to untreated control", "setting": "ART 0.1 μM, exposure 8 h", "value": "—"},
      {"measurement": "YFP intensity in the bundle compared to untreated control", "setting": "ART 0.1 μM, exposure 10 h", "value": "—"},
      {"measurement": "YFP intensity, post-exposure hair cell body hCLRN1N48K aggregates recovery", "setting": "ART 0.1 μM, post-exposure recovery time 10 h", "value": "—"},
      {"measurement": "YFP intensity, post-exposure hair cell body hCLRN1N48K aggregates recovery", "setting": "ART 0.1 μM, post-exposure recovery time 24 h", "value": "—"},
      {"measurement": "YFP intensity, post-exposure hair cell body hCLRN1N48K aggregates recovery", "setting": "ART 0.1 μM, post-exposure recovery time 48 h", "value": "—"},
      {"measurement": "YFP intensity in the bundle compared to untreated control", "setting": "ART 0.25 μM, exposure 1 h", "value": "—"},
      {"measurement": "YFP intensity in the bundle compared to untreated control", "setting": "ART 0.25 μM, exposure 6 h", "value": "—"},
      {"measurement": "YFP intensity in the bundle compared to untreated control", "setting": "ART 0.25 μM, exposure 10 h", "value": "—"},
      {"measurement": "YFP intensity, post-exposure hair cell body hCLRN1N48K aggregates recovery", "setting": "ART 0.25 μM, post-exposure recovery time 10 h", "value": "—"},
      {"measurement": "YFP intensity, post-exposure hair cell body hCLRN1N48K aggregates recovery", "setting": "ART 0.25 μM, post-exposure recovery time 24 h", "value": "—"},
      {"measurement": "YFP intensity, post-exposure hair cell body hCLRN1N48K aggregates recovery", "setting": "ART 0.25 μM, post-exposure recovery time 48 h", "value": "—"},
      {"measurement": "YFP intensity in the bundle compared to untreated control", "setting": "ART 0.4 μM, exposure 1 h", "value": "—"},
      {"measurement": "YFP intensity in the bundle compared to untreated control", "setting": "ART 0.4 μM, exposure 2 h", "value": "—"},
      {"measurement": "YFP intensity in the bundle compared to untreated control", "setting": "ART 0.4 μM, exposure 6 h", "value": "+"},
      {"measurement": "Cumulative average of YFP intensity in the ROI in hair bundles (Mean±SEM)", "value": "31.04±1.25"},
      {"measurement": "Increase in trafficking of hCLRN1^N48K to the hair bundle", "value": 5, "unit": "folds"}
    ]},
    {"smiles": "C/C=C(/C)C(=O)O[C@H]1C(C)=C2[C@H]([C@@H]1OC(=O)CCCCCCC)[C@@](C)(OC(C)=O)C[C@H](OC(=O)CCC)[C@@]1(O)[C@H]2OC(=O)[C@@]1(C)O", "note": "[TG, Thapsigargin]", "values": [
      {"measurement": "Hair bundles with strong expression of hCLRN1^N48K-YFP protein", "value": 38, "unit": "%"},
      {"measurement": "YFP intensity in the bundle compared to untreated control", "setting": "TG 0.1 μM, exposure 1 h", "value": "—"},
      {"measurement": "YFP intensity in the bundle compared to untreated control", "setting": "TG 0.1 μM, exposure 2 h", "value": "—"},
      {"measurement": "YFP intensity in the bundle compared to untreated control", "setting": "TG 0.1 μM, exposure 3 h", "value": "—"},
      {"measurement": "YFP intensity in the bundle compared to untreated control", "setting": "TG 0.1 μM, exposure 4 h", "value": "—"},
      {"measurement": "YFP intensity in the bundle compared to untreated control", "setting": "TG 0.1 μM, exposure 8 h", "value": "—"},
      {"measurement": "YFP intensity in the bundle compared to untreated control", "setting": "TG 0.1 μM, exposure 16 h", "value": "—"},
      {"measurement": "YFP intensity in the bundle compared to untreated control", "setting": "TG 0.5 μM, exposure 1 h", "value": "—"},
      {"measurement": "YFP intensity in the bundle compared to untreated control", "setting": "TG 0.5 μM, exposure 2 h", "value": "—"},
      {"measurement": "YFP intensity in the bundle compared to untreated control", "setting": "TG 0.5 μM, exposure 3 h", "value": "—"},
      {"measurement": "YFP intensity in the bundle compared to untreated control", "setting": "TG 0.5 μM, exposure 4 h", "value": "—"},
      {"measurement": "YFP intensity in the bundle compared to untreated control", "setting": "TG 0.5 μM, exposure 8 h", "value": "—"},
      {"measurement": "YFP intensity in the bundle compared to untreated control", "setting": "TG 1.0 μM, exposure 1 h", "value": "—"},
      {"measurement": "YFP intensity in the bundle compared to untreated control", "setting": "TG 1.0 μM, exposure 2 h", "value": "—"},
      {"measurement": "YFP intensity in the bundle compared to untreated control", "setting": "TG 1.0 μM, exposure 3 h", "value": "+"},
      {"measurement": "Rescue of mutant protein to the hair bundle", "setting": "TG dosages lower than 1 μM", "value": "inefficient in rescuing mutant protein"},
      {"measurement": "Cumulative average of YFP intensity in the ROI in hair bundles (Mean±SEM)", "value": "18.59±0.87"},
      {"measurement": "Increase in trafficking of hCLRN1^N48K to the hair bundle", "value": 3, "unit": "folds"}
    ]}
  ]
}
